In patent publication US12673975B2, “Cyclic peptide, cell scaffold material, cell separating material, and medium” (FUJIFILM Corporation, priority 2019, dated 2026):
pKd: −log10 of the molar value. Starred links: 1 amine or outer side, 2 acyl side, 3 side chain; linkers in the order of their positions; H or OH if unused. Positions of bridges follow the written chain, without caps; N, C: chain ends. Non-standard residues stand in square brackets, D forms with d. Residues, ends and D or L forms follow the SMILES beside them. hCys = N[C@@H](CCS)C(=O)O; Dab = NCC[C@H](N)C(=O)O; X2 = O=C(C[*:1])[*:2]

Columns and labels:
[1] = Evaluation of molecule stability (alkali treatment, residual rate by LC/MS); type: physicochemical; conditions: 500 μM peptide aqueous solution plus equivalent of 1 M sodium hydroxide, 15° C., 3 hours, LC/MS peak area
Procedure: The molecule stability of the cyclic peptide was evaluated by analyzing the alkali-treated cyclic peptide aqueous solution by liquid chromatography mass spectroscopy (LC/MS).
The alkali treatment was carried out by the following method. A 500 μM cyclic peptide aqueous solution was prepared, an equivalent of 1 M sodium hydroxide aqueous solution was added to this aqueous solution, and the resultant mixture was incubated at 15° C. for 3 hours to obtain an alkali-treated cyclic peptide aqueous solution. The cyclic peptide residual rate was calculated by setting the total area of all peaks of the cyclic peptide before alkali treatment in LC/MS to 100% and determining the proportion of the total area of all peaks in LC/MS of the alkali-treated cyclic peptide aqueous solution, and the molecule stability was evaluated according to the following evaluation standards. It is preferable that the evaluation result satisfies the evaluation standard A, B, or C.
The conditions of the LC/MS used for the evaluation of molecule stability were set as follows. • LC apparatus: Prominence series (pump, column oven, autosampler, detector) (manufactured by Shimadzu Corporation) • MS detector: LC/MS2010EV (manufactured by Shimadzu Corporation) • Column: Cadenza CD-C18, inner diameter 2.0 mm×length 250 mm, particle size: 3 μm (manufactured by Imtakt Corporation) • Eluent A: a solution (pH 3) containing 10 mM ammonium formate as a solute, where the solvent is 100% water. • Eluent B: a solution (pH 3) containing 10 mM ammonium formate as a solute, where the solvent is acetonitrile/water=90/10. • Flow rate: 0.2 mL/min • Injection volume: 4 μL • Gradient: 0% to 30%: Eluent B (0 to 30 minutes), 100%: Eluent B (30 to 40 minutes), 0%: Eluent B (40 to 60 minutes) • Column temperature: 45° C. • Ionization method: electrospray ionization (ESI) positive, ESI negative

human integrin αvβ5 = human integrin αvβ5 (Homo sapiens, UniProt P06756+P18084); assay: Evaluation of integrin binding property (surface plasmon resonance, Biacore 3000, immobilized cyclic peptide); conditions: SPR, 25° C., HEPES buffer with 5 mM magnesium chloride, integrin 30-1,000 nM; read-out: Performance evaluation: Binding activity (dissociation constant between the cyclic peptide and human integrin αvβ5)
Sequence of human integrin αvβ5 (P06756 31-1048): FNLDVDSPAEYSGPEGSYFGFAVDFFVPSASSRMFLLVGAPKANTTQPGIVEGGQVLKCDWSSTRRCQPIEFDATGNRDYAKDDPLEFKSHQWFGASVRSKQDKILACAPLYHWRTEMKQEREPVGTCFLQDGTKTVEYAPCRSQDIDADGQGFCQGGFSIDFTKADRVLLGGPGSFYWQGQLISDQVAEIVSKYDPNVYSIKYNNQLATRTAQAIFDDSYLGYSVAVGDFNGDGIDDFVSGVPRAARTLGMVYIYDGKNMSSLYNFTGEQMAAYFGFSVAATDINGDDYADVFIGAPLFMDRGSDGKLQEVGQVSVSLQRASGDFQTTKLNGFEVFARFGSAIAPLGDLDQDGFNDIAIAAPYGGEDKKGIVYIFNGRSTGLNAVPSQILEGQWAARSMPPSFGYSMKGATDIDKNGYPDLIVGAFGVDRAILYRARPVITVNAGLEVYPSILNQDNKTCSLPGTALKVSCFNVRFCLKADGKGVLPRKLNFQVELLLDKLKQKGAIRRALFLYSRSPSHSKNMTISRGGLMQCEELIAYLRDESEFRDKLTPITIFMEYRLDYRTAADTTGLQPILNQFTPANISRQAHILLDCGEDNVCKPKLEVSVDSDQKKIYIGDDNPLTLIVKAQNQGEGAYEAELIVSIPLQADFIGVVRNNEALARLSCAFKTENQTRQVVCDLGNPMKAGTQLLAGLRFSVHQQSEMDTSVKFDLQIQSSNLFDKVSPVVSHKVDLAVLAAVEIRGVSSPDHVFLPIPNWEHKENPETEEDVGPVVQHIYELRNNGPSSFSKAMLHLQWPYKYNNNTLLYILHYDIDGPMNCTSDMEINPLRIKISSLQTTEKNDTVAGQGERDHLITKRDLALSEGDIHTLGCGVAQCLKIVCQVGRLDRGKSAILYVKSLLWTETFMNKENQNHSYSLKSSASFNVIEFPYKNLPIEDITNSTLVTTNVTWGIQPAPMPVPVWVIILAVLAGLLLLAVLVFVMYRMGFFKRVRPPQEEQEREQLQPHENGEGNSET
Sequence of human integrin αvβ5 (P18084 24-799): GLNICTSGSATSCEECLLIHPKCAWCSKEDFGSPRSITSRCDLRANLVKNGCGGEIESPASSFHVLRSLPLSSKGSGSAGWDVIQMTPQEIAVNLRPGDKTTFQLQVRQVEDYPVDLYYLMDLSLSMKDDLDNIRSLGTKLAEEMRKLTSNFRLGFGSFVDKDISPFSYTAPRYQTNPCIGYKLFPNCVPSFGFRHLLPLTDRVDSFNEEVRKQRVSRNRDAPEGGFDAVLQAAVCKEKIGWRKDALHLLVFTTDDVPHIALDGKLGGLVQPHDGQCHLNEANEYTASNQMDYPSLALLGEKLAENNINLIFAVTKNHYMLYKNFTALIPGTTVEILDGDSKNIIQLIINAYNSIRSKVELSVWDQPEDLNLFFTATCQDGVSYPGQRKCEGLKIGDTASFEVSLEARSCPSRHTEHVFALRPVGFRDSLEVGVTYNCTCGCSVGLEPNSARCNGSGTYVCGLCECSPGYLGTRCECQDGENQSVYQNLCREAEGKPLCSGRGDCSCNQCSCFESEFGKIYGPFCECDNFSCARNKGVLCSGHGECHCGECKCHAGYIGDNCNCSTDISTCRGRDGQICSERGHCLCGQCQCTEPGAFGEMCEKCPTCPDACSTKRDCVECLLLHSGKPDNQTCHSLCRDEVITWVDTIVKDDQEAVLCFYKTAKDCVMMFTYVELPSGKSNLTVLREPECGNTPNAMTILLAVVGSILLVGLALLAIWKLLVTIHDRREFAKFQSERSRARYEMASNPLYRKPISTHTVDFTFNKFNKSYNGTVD
Procedure: A commercially available CMS (a carboxymethyl dextran introduction type, manufactured by GE Healthcare) sensor chip was set in Biacore 3000, which is a surface plasmon resonance apparatus manufactured by GE Healthcare, the sensor was stabilized at a flow rate of 10 μL/min of a HEPES (4-(2-hydroxyethyl)-1-piperazineethanesulfonic acid) buffer solution (20 mM HEPES-HCl, 150 mM NaCl, pH 7.4) for surface plasmon resonance (SPR), and 70 μL of a mixed aqueous solution of 0.2 M 1-(3-dimethylaminopropyl)-3-ethylcarbodiimide (EDC) and 0.04 M N-hydroxysuccinimide (NHS) was added thereto. Here, the concentration unit M represents mol/L, and the same applies hereinafter. Then, 20 μL of the sample solution of each of the above cyclic peptides diluted to 0.2 g/L with the HEPES buffer solution was supplied to the sensor chip, blocking treatment was subsequently carried out with an ethanolamine solution, and washing was carried out with a sodium hydroxide aqueous solution, whereby immobilization was carried out. However, only for the cyclic peptides 125, 126, and 127, in which the number of lysine residues having an amino group as the immobilizing functional group was zero, the amount of the sample solution to be supplied to the sensor chip was set to 500 μL instead of 20 μL. Further, 70 μL of the mixed aqueous solution of 0.2 M EDC and 0.04 M NHS was added to another flow channel of the same sensor chip without immobilizing the sample, and then blocking treatment and washing treatment were carried out. Hereinafter, the obtained immobilization-treated sensor chip is referred to as an “immobilization-treated sensor chip A”.
After adding human integrin αvβ5 for 10 minutes at 25° C., which was diluted to 30 nM using a HEPES buffer solution to which magnesium chloride was added to 5 mM, in each flow channel of the immobilization-treated sensor chip A prepared in (1) above, the same HEPES buffer solution (containing 5 mM magnesium chloride) was allowed to flow as a running buffer for 30 minutes, and measurement was carried out with Biacore 3000. Then, a regeneration treatment of removing human integrin αvβ5 was carried out by allowing a 0.5 M EDTA aqueous solution to flow through each flow channel for 10 minutes. Further, the above-described measurement process consisting of adding integrin for 10 minutes, allowing a running buffer to flow for 30 minutes, carrying out measurement with Biacore 3000, and carrying out regeneration treatment with 0.5 M EDTA aqueous solution was carried out in the same manner for 100 nM human integrin αvβ5, 300 nM human integrin αvβ5, and 1,000 nM human integrin αvβ5. Dissociation constant between the cyclic peptide and human integrin αvβ5 was calculated from the difference between the value measured by Biacore 3000 in the flow channel immobilized with the cyclic peptide and the value measured by Biacore 3000 in the flow channel unimmobilized with the cyclic peptide, in a case where each concentration of human integrin αvβ5 was allowed to flow, and the integrin binding property was evaluated according to the following evaluation standards. It is preferable that the evaluation result satisfies the evaluation standard A, B, or C.

Row | Structure (SMILES) | Performance evaluation: Stability (residual rate of cyclic peptide after alkali treatment) [1] | pKd (human integrin αvβ5)
1 | CC[C@H](C)[C@@H]1NC(=O)[C@@H](NC(=O)[C@H](CCCCN)NC(=O)[C@H](CCCCN)NC(=O)[C@@H](N)CCCCN)CCSCC(=O)NCC[C@@H](C(=O)N[C@@H](C)C(=O)O)NC(=O)[C@H](C)NC(=O)[C@H](C)NC(=O)[C@H](CCCNC(=N)N)NC(=O)[C@H](Cc2ccccc2)NC(=O)[C@H](CC(N)=O)NC(=O)[C@H](CC(=O)O)NC(=O)CNC(=O)[C@H](CCCNC(=N)N)NC(=O)[C@@H]2CCCN2C1=O [Cyclic peptide 19, KKK-(Hcy)-IPRGDNFRAA(Dab(acetyl))A] (H-KKK[hCys]IPRGDNFRAA[Dab]A-OH; linker 4-15 via X2) | A (The residual rate of the cyclic peptide is 70% or more.) | > 7.30
2 | CC[C@H](C)[C@@H]1NC(=O)[C@H](C)NC(=O)[C@@H](NC(=O)CNC(=O)[C@H](CCCCN)NC(=O)[C@H](CCCCN)NC(=O)[C@@H](N)CCCCN)CCSCC(=O)NCC[C@@H](C(=O)N[C@@H](C)C(=O)O)NC(=O)[C@H](C)NC(=O)[C@H](CCCNC(=N)N)NC(=O)[C@H](Cc2ccccc2)NC(=O)[C@H](CC(N)=O)NC(=O)[C@H](CC(=O)O)NC(=O)CNC(=O)[C@H](CCCNC(=N)N)NC(=O)[C@@H]2CCCN2C1=O [Cyclic peptide 20, KKKG-(Hcy)-AIPRGDNFRA(Dab(acetyl))A] (H-KKKG[hCys]AIPRGDNFRA[Dab]A-OH; linker 5-16 via X2) | A (The residual rate of the cyclic peptide is 70% or more.) | 7.00 to 7.30
3 | CC(C)[C@@H]1NC(=O)[C@@H](NC(=O)[C@H](CCCCN)NC(=O)[C@H](CCCCN)NC(=O)[C@@H](N)CCCCN)CCSCC(=O)NCC[C@@H](C(=O)N[C@@H](C)C(=O)O)NC(=O)[C@H](CCCNC(=N)N)NC(=O)[C@H](Cc2ccccc2)NC(=O)[C@H](CC(N)=O)NC(=O)[C@H](CC(=O)O)NC(=O)CNC(=O)[C@H](CCCNC(=N)N)NC(=O)[C@@H]2CCCN2C1=O [Cyclic peptide 21, KKK-(Hcy)-VPRGDNFR(Dab(acetyl))A] (H-KKK[hCys]VPRGDNFR[Dab]A-OH; linker 4-13 via X2) | A (The residual rate of the cyclic peptide is 70% or more.) | > 7.30
4 | C[C@H](NC(=O)[C@@H]1CCNC(=O)CSCC[C@H](NC(=O)[C@H](CCCCN)NC(=O)[C@H](CCCCN)NC(=O)[C@@H](N)CCCCN)C(=O)N[C@@H](CC(=O)O)C(=O)N2CCC[C@H]2C(=O)N[C@@H](CCCNC(=N)N)C(=O)NCC(=O)N[C@@H](CC(=O)O)C(=O)N[C@@H](CC(N)=O)C(=O)N[C@@H](Cc2ccccc2)C(=O)N[C@@H](CCCNC(=N)N)C(=O)N1)C(=O)O [Cyclic peptide 22, KKK-(Hcy)-DPRGDNFR(Dab(acetyl))A] (H-KKK[hCys]DPRGDNFR[Dab]A-OH; linker 4-13 via X2) | A (The residual rate of the cyclic peptide is 70% or more.) | 7.00 to 7.30
5 | C[C@H](NC(=O)[C@@H]1CCNC(=O)CSCC[C@H](NC(=O)[C@H](CCCCN)NC(=O)[C@H](CCCCN)NC(=O)[C@@H](N)CCCCN)C(=O)N[C@@H](CCC(=O)O)C(=O)N2CCC[C@H]2C(=O)N[C@@H](CCCNC(=N)N)C(=O)NCC(=O)N[C@@H](CC(=O)O)C(=O)N[C@@H](CC(N)=O)C(=O)N[C@@H](Cc2ccccc2)C(=O)N[C@@H](CCCNC(=N)N)C(=O)N1)C(=O)O [Cyclic peptide 23, KKK-(Hcy)-EPRGDNFR(Dab(acetyl))A] (H-KKK[hCys]EPRGDNFR[Dab]A-OH; linker 4-13 via X2) | A (The residual rate of the cyclic peptide is 70% or more.) | > 7.30
6 | C[C@H](NC(=O)[C@@H]1CCNC(=O)CSCC[C@H](NC(=O)[C@H](CCCCN)NC(=O)[C@H](CCCCN)NC(=O)[C@@H](N)CCCCN)C(=O)N[C@@H](Cc2ccc(O)cc2)C(=O)N2CCC[C@H]2C(=O)N[C@@H](CCCNC(=N)N)C(=O)NCC(=O)N[C@@H](CC(=O)O)C(=O)N[C@@H](CC(N)=O)C(=O)N[C@@H](Cc2ccccc2)C(=O)N[C@@H](CCCNC(=N)N)C(=O)N1)C(=O)O [Cyclic peptide 24, KKK-(Hcy)-YPRGDNFR(Dab(acetyl))A] (H-KKK[hCys]YPRGDNFR[Dab]A-OH; linker 4-13 via X2) | A (The residual rate of the cyclic peptide is 70% or more.) | > 7.30
7 | CC[C@H](C)[C@@H]1NC(=O)[C@@H](NC(=O)[C@H](CCCCN)NC(=O)[C@H](CCCCN)NC(=O)[C@@H](N)CCCCN)CCSCC(=O)NCC[C@@H](C(=O)N[C@@H](C)C(=O)O)NC(=O)[C@H](CCCNC(=N)N)NC(=O)[C@H](Cc2ccccc2)NC(=O)[C@H](CO)NC(=O)[C@H](CC(=O)O)NC(=O)CNC(=O)[C@H](CCCNC(=N)N)NC(=O)[C@@H]2CCCN2C1=O [Cyclic peptide 25, KKK-(Hcy)-IPRGDSFR(Dab(acetyl))A] (H-KKK[hCys]IPRGDSFR[Dab]A-OH; linker 4-13 via X2) | A (The residual rate of the cyclic peptide is 70% or more.) | 7.00 to 7.30
8 | CC[C@H](C)[C@@H]1NC(=O)[C@@H](NC(=O)[C@H](CCCCN)NC(=O)[C@H](CCCCN)NC(=O)[C@@H](N)CCCCN)CCSCC(=O)NCC[C@@H](C(=O)N[C@@H](C)C(=O)O)NC(=O)[C@H](CCCNC(=N)N)NC(=O)[C@H](Cc2ccc(O)cc2)NC(=O)[C@H](CC(N)=O)NC(=O)[C@H](CC(=O)O)NC(=O)CNC(=O)[C@H](CCCNC(=N)N)NC(=O)[C@@H]2CCCN2C1=O [Cyclic peptide 26, KKK-(Hcy)-IPRGDNYR(Dab(acetyl))A] (H-KKK[hCys]IPRGDNYR[Dab]A-OH; linker 4-13 via X2) | A (The residual rate of the cyclic peptide is 70% or more.) | 7.00 to 7.30
9 | CC(C)C[C@@H]1NC(=O)[C@@H](NC(=O)CNC(=O)[C@H](CCCCN)NC(=O)[C@H](CCCCN)NC(=O)[C@@H](N)CCCCN)CCSCC(=O)NCC[C@@H](C(=O)N[C@@H](C)C(=O)O)NC(=O)[C@H](CCCNC(=N)N)NC(=O)[C@H](Cc2ccccc2)NC(=O)[C@H](CC(N)=O)NC(=O)[C@H](CC(=O)O)NC(=O)CNC(=O)[C@H](CCCNC(=N)N)NC(=O)[C@@H]2CCCN2C1=O [Cyclic peptide 27, KKKG-(Hcy)-LPRGDNFR(Dab(acetyl))A] (H-KKKG[hCys]LPRGDNFR[Dab]A-OH; linker 5-14 via X2) | A (The residual rate of the cyclic peptide is 70% or more.) | > 7.30
